Data as given in patent US20110224232A1 (Board of Regents, The University of Texas System, priority 2008, published 2011).
“Also recorded” adds a separate entry of the source.

Tested on: A. fumigatus
Assay: Lung histopathology, pulmonary lesion counts in A. fumigatus-infected mice
Type: in vivo, Aspergillus fumigatus
Experimental: Histopathological changes in lung tissue were evaluated and compared for four mice in each of the inhaled voriconazole, inhaled control, and intraperitoneal AmB groups. The inhaled control was aerosolized CAPTISOL® at a concentration of 100 mg/mL over 20 minutes. On day 8 post inoculation, animals were euthanized using halothane and 10% volume/volume formaldehyde was instilled into the lungs via the trachea. Lungs were then harvested and placed into 10% volume/volume formaldehyde. Tissue was fixed in formaldehyde for an adequate period of time followed by processing and embedding into paraffin wax. Coronal sections of the entire lung were obtained at a thickness of 4-6 μm and mounted on slides. Sections were stained with hematoxylin and eosin and viewed by light microscopy with a Zeiss AxioVision Imager at 10× magnification. Two investigators were blinded and independently evaluated each lung section. The extent of lung damage caused by invasive hyphae was recorded and quantified by counting and normalizing the number of gross lesions.
Normalization of the histopathology results was achieved by using the number of lung pieces (sections) on the slide as a denominator. The total number of lesions on the slide were counted and then divided by the number of pieces of tissue on that slide. This was done because the number of pieces of tissue per slide (again, all from the same cut of lung from the same animal) ranged from 4 to 9. For example, the normalized number of lesions would be 0.4 if 2 lesions were observed on a slide with 5 lung pieces. Similarly, the normalized value would be 0.14 if 1 lesion was observed on a slide with 7 lung pieces.

[1] = normalized lesions, listed as VRC

Structure (SMILES): CC(c1ncncc1F)C(O)(Cn1cncn1)c1ccc(F)cc1F (stereo not drawn) [Voriconazole, 2-(2,4-difluorophenyl)-3-(5-fluoropyrimidin-4-yl)-1-(1H-1,2,4-triazol-1-yl)butan-2-ol]
- lung histopathology findings (in words) (A. fumigatus-infected mice, aerosolized voriconazole, intraperitoneal amphotericin B): fewer signs of invasive disease and markedly improved histological findings; also recorded: fewer signs of invasive disease and markedly improved histological results; also recorded: Invasive hyphae and tissue destruction characteristic of invasive pulmonary aspergillosis were not observed
- pulmonary lesions normalized for the number of lung tissue pieces per slide, 25th Percentile (normalized lesions): 0.19
- pulmonary lesions normalized for the number of lung tissue pieces per slide, 75th Percentile (normalized lesions): 0.51
- pulmonary lesions normalized for the number of lung tissue pieces per slide, Maximum (normalized lesions): 0.55
- pulmonary lesions normalized for the number of lung tissue pieces per slide, Mean (normalized lesions): 0.4
- pulmonary lesions normalized for the number of lung tissue pieces per slide, Median (normalized lesions): 0.37
- pulmonary lesions normalized for the number of lung tissue pieces per slide, Minimum (normalized lesions): 0.14
- pulmonary lesions normalized for the number of lung tissue pieces per slide, 25th Percentile [1]: 0.2
- pulmonary lesions normalized for the number of lung tissue pieces per slide, 75th Percentile [1]: 0.5
- pulmonary lesions normalized for the number of lung tissue pieces per slide, Maximum [1]: 0.6
- pulmonary lesions normalized for the number of lung tissue pieces per slide, Median [1]: 0.4
- pulmonary lesions normalized for the number of lung tissue pieces per slide, Minimum [1]: 0.1
- pulmonary lesions in all available histological samples, 25th Percentile (number of lesions): 1.3
- pulmonary lesions in all available histological samples, 75th Percentile (number of lesions): 4.3
- pulmonary lesions in all available histological samples, Maximum (number of lesions): 5.0
- pulmonary lesions in all available histological samples, Mean (number of lesions): 2.5
- pulmonary lesions in all available histological samples, Median (number of lesions): 2.0
- pulmonary lesions in all available histological samples, Minimum (number of lesions): 1.0
